What all share (assay type): biochemical
The target in one experiment is PAK1 (Homo sapiens, UniProt Q13153). Nature of the experiment: Z'Lyte fluorescence-based (FRET) PAK kinase assay, PAK1. The following applies: 50 μM ATP. How it is done:
(§1) A fluorescence-based assay format is used to determine IC50 values of test compounds in vitro. Purified PAK kinase is incubated with ATP, and a test compound at various concentrations and a substrate peptide containing two fluorophores. In a second step, the reaction mix is incubated with a site-specific protease that cleaves non-phosphorylated bat not phosphorylated substrate peptide, disrupting the FRET signal generated by the two fluorophores in the cleaved peptide (Z′Lyte™ Kinase assay platform; Life Technologies).
(§2) Reagents: 50 mM HEPES, pH 7.5; 0.01% BRIJ-35; […]; 1 mM EGTA, 2 uM substrate peptide Ser/Thr20 (proprietary Life Technologies Sequence), PAK enzyme [2.42-30.8 ng for PAK1, 0.29-6 ng for PAK2, 1.5-20 ng for PAK3 and 0.1-0.86 ng for PAK4; actual enzyme amounts depend on lot activity of the enzyme preparation]
(§3) Test compounds are dissolved in DMSO at various concentrations; the final DMSO concentration in the assay reaction is 1%.
(§4) ATP concentration at […] apparent is used in the assay [50 ┌M ATP for PAK1 assay, 75 ┌M ATP for PAK2 assay, 100 μM ATP for PAK3 assay, 5 μM ATP for PAK4 assay] in a total assay volume of 10 μl. Assay reactions are incubated at room temperature for 1 hr. Following the kinase reaction, 5 μl of 1:256 dilution of development solution A (Life Technologies) is added and the reaction mix is incubated for an additional 1 hr at room temperature.
(§5) Plates are analyzed in a standard fluorescence plate reader (Tecan or equivalent) using an excitation wavelength of 400 nn and emission wavelengths of 445 nm and 520 nm.
(§6) Inhibition of kinase reaction is determined by emission ratio=emission@445 nm/emission@520 nm
(§7) A fluorescence-based assay format is used to determine IC50 values of test compounds in vitro. Purified PAK kinase is incubated with ATP, and a test compound at various concentrations and a substrate peptide containing two fluorophores. In a second step, the reaction mix is incubated with a site-specific protease that cleaves non-phosphorylated but not phosphorylated substrate peptide, disrupting the FRET signal generated by the two fluorophores in the cleaved peptide (Z'Lyte™ Kinase assay platform Life Technologies).
(§8) Reagents: 50 mM HEPES, pH 7.5; 0.01% BRIJ-35; 10 mM MgCl2; 1 mM EGTA, 2 uM substrate peptide Ser/Thr20 (proprietary Life Technologies Sequence), PAK enzyme [2.42-30.8 ng for PAK1, 0.29-6 ng for PAK2, 1.5-20 ng for PAK3 and 0.1-0.86 ng for PAK4; actual enzyme amounts depend on lot activity of the enzyme preparation]
(§9) ATP concentration at Km apparent is used in the assay [50 μMATP for PAK1 assay, 75 µM ATP for PAK2 assay, 100 μM ATP for PAK3 assay, 5 μM ATP for PAK4 assay] in a total assay volume of […] Assay reactions are incubated at room temperature for 1 hr. Following the kinase reaction. […] of 1:256 dilution of development solution A (Life Technologies) is added and the reaction mix is incubated for an additional 1 hr at room temperature.
(§10) Plates are analyzed in a standard fluorescence plate reader (Teem or equivalent) using an excitation wavelength of 400 nm and emission wavelengths of 445 nm and 520 nm.

Another experiment concerns the target PAK2 (Homo sapiens, UniProt Q13177). Nature of the experiment: Z'Lyte fluorescence-based (FRET) PAK kinase assay, PAK2. The conditions noted are these: Table 1 of Example 100; 75 μM ATP. How it is done:
as §1, §2, §3, §4, §5, §6, §7, §8, §9, §10

Another experiment deals with PAK4 (Homo sapiens, UniProt O96013). Nature of the experiment: Z'Lyte fluorescence-based (FRET) PAK kinase assay, PAK4. The following applies: 5 μM ATP. The protocol:
as §1, §2, §3, §4, §5, §6, §7, §8, §9, §10

The mark [1] stands for this setting: Table 1 of Example 29 (own compound numbering).

Drawing on patent US20120270844A1, “METHODS FOR TREATING ALZHEIMER'S DISEASE” (aFRAXis, Inc., priority 2009, published 2012), this text covers IC50 for 41 molecules.

PAK1, sequence (Q13153 whole entry): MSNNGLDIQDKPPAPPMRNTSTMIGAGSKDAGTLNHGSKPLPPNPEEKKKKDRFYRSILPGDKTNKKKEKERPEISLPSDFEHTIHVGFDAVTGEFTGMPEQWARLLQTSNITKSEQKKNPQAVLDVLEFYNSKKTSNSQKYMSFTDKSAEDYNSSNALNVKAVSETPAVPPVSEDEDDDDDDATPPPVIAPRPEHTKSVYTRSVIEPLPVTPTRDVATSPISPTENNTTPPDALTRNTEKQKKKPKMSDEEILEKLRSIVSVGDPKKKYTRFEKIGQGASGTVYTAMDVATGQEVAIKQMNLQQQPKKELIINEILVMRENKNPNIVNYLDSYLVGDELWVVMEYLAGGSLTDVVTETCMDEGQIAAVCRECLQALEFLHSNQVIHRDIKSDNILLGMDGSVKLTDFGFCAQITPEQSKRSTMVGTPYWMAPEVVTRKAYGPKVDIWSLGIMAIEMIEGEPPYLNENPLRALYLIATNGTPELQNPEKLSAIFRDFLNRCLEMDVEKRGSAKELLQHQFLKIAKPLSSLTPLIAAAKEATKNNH
PAK2, sequence (Q13177 whole entry): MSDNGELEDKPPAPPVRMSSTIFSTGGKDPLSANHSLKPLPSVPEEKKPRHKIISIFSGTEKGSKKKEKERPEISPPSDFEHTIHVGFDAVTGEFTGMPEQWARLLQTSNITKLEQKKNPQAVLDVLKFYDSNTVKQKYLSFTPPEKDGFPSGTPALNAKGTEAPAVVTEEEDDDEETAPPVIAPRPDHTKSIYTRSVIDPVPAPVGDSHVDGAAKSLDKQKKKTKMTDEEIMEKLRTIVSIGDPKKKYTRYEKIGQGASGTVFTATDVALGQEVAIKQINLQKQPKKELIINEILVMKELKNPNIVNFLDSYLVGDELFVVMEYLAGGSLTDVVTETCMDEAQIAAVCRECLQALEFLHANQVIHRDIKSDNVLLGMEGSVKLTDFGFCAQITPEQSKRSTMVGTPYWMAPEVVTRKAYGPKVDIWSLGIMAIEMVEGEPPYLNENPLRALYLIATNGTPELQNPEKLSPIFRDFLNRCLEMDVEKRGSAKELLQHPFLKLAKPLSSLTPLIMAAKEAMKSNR
PAK4, sequence (O96013 whole entry): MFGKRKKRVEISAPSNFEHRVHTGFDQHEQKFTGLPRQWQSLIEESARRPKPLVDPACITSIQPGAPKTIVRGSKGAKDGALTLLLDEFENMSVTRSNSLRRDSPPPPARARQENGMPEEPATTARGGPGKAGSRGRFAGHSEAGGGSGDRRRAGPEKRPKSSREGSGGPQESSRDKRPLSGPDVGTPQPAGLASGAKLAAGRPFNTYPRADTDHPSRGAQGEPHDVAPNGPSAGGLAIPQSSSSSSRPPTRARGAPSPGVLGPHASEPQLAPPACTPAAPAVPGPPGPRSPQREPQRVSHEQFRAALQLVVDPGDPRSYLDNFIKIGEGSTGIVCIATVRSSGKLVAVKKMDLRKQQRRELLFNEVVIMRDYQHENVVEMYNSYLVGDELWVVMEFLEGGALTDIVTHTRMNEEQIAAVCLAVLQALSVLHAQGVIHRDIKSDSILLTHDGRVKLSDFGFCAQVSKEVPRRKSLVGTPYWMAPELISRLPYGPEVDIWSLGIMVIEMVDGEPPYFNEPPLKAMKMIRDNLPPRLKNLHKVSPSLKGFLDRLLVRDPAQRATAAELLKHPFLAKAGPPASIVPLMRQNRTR

Consider `O=c1ccc2cnc(Nc3ccc(N4CCOCC4)cc3)nc2n1C1CCCC1` [Compound 2], for which the results for the IC50 at PAK1 (Table 1 of Example 100), at PAK2 and against PAK4 (Table 1 of Example 100) were > 10000 nM, > 10 µM and 1000 to 10000 nM, respectively.
On the same counts, the results for `CN(C)c1ccc(Nc2ncc3ccc(=O)n(C4CCCC4)c3n2)cc1` [Compound 3] are > 10000 nM, > 10 µM and 1000 to 10000 nM.
On the same counts, the results for `CN(C)CCNc1ccc(Nc2ncc3ccc(=O)n(C4CCCC4)c3n2)cc1` [Compound 4] are 1000 to 10000 nM, 1 to 10 µM and 1000 to 10000 nM.
The molecule `CN1CCN(c2ccc(Nc3ncc4ccc(=O)n(Cc5ccccc5)c4n3)cc2)CC1` [Compound 26] returned an IC50 against PAK2 of 1 to 10 µM.
For the molecule `CN1CCN(c2ccc(Nc3ncc4ccc(=O)n(Cc5cccc(F)c5)c4n3)cc2)CC1` [Compound 27], the IC50 on PAK1 (Table 1 of Example 100) fell in the range of 1000 to 10000 nM; against PAK2, 1 to 10 µM; at PAK4 (Table 1 of Example 100), 1000 to 10000 nM.
As to `CN1CCN(c2ccc(Nc3ncc4ccc(=O)n(Cc5ccc(F)cc5)c4n3)cc2)CC1` [Compound 28], the IC50 on PAK1 (Table 1 of Example 100) was 1000 to 10000 nM; at PAK2, > 10 µM; against PAK4 (Table 1 of Example 100) it was > 10000 nM.
On the same counts, the results for `COc1ccc(Cn2c(=O)ccc3cnc(Nc4ccc(N5CCN(C)CC5)cc4)nc32)cc1` [Compound 29] are > 10000 nM, > 10 µM and > 10000 nM.
`CN1CCN(c2ccc(Nc3ncc4ccc(=O)n(C5CCCC5)c4n3)cc2)CC1` [compound 57]: the IC50 is < 1000 nM on PAK1 (setting [1]) and 1000 to 10000 nM on PAK4 (setting [1]).
In the same order, the values of `O=c1ccc2cnc(Nc3ccc(N4CCOCC4)cc3)nc2n1C1CCCC1` [compound 58] are > 10000 nM and 1000 to 10000 nM.
In the same order, the values of `CN(C)c1ccc(Nc2ncc3ccc(=O)n(C4CCCC4)c3n2)cc1` [compound 59] are > 10000 nM and 1000 to 10000 nM.
In the same order, the values of `CN(C)CCNc1ccc(Nc2ncc3ccc(=O)n(C4CCCC4)c3n2)cc1` [compound 60] are 1000 to 10000 nM and 1000 to 10000 nM.
For the molecule `CN1CCN(c2ccc(Nc3ncc4ccc(=O)n(C5CCc6ccccc65)c4n3)cc2)CC1` (centres unmarked) [compound 62], the IC50 against PAK1 (setting [1]) is < 1000 nM; against PAK4 (setting [1]), 1000 to 10000 nM.
In the same order, the values of `O=c1ccc2cnc(Nc3ccc(NC4CCCNC4)cc3)nc2n1Cc1ccccc1C(F)(F)F` (centres unmarked) [compound 63] are < 1000 nM and < 1000 nM.
In the same order, the values of `O=c1ccc2cnc(Nc3ccc(NC4CCNCC4)cc3)nc2n1Cc1ccccc1C(F)(F)F` [compound 64] are < 1000 nM and < 1000 nM.
On the same counts, the results for `CN1CCN(c2ccc(Nc3ncc4ccc(=O)n([C@@H]5CCCc6ccccc65)c4n3)cc2)CC1` [compound 66] are 1000 to 10000 nM and 1000 to 10000 nM.
For the molecule `CN1CCN(c2ccc(Nc3ncc4ccc(=O)n(C5CCCc6ccccc65)c4n3)cc2)CC1` (centres unmarked) [compound 67], the IC50 at PAK1 (setting [1]) is < 1000 nM; against PAK4 (setting [1]), 1000 to 10000 nM.
On the same counts, the results for `O=c1ccc2cnc(Nc3ccc(OC4CCNCC4)cc3)nc2n1Cc1ccccc1C(F)(F)F` [compound 68] are < 1000 nM and < 1000 nM.
In the same order, the values of `O=c1ccc2cnc(Nc3ccc(OC4CCCNC4)cc3)nc2n1Cc1ccccc1C(F)(F)F` (centres unmarked) [compound 70] are < 1000 nM and < 1000 nM.
In the same order, the values of `CN1CCN(c2ccc(Nc3ncc4ccc(=O)n(C5CCOc6ccccc65)c4n3)cc2)CC1` (centres unmarked) [compound 71] are 1000 to 10000 nM and 1000 to 10000 nM.
For `CN(C)CC(c1ccccc1)n1c(=O)ccc2cnc(Nc3ccc(N4CCOCC4)cc3)nc21` (centres unmarked) [compound 72], the IC50 on PAK1 (setting [1]) and on PAK4 (setting [1]) was > 10000 nM in each case.
Regarding `CN1CCN(c2ccc(Nc3ncc4ccc(=O)n(C5Cc6ccccc6C5)c4n3)cc2)CC1` [compound 73], the IC50 against PAK1 (setting [1]) and against PAK4 (setting [1]) was < 1000 nM in each case.
Take `CN1CCN(c2ccc(Nc3ncc4ccc(=O)n(C5CCc6ccccc6C5)c4n3)cc2)CC1` (centres unmarked) [compound 74]: the IC50 against PAK1 (setting [1]) and against PAK4 (setting [1]) was < 1000 nM each time.
Regarding `CN(C)CC(c1ccccc1)n1c(=O)ccc2cnc(Nc3ccc(N4CCN(C)CC4)cc3)nc21` (centres unmarked) [compound 75], the IC50 against PAK1 (setting [1]) and against PAK4 (setting [1]) was > 10000 nM each time.
As to `O=c1ccc2cnc(Nc3ccc(N4CCNCC4)c(F)c3)nc2n1C1Cc2ccccc2C1` [compound 77], the IC50 on PAK1 (setting [1]) and on PAK4 (setting [1]) was < 1000 nM each time.
Regarding `O=c1ccc2cnc(Nc3ccc(N4CCNCC4)c(F)c3)nc2n1C1CCc2ccccc2C1` (centres unmarked) [compound 78], the IC50 on PAK1 (setting [1]) and at PAK4 (setting [1]) was < 1000 nM each time.
For `CN1CCN(c2ccc(Nc3ncc4ccc(=O)n(Cc5ccc(F)cc5)c4n3)cc2)CC1` [compound 82], the 50% inhibitory concentration (IC50) was 1000 to 10000 nM on PAK1 (setting [1]) and > 10000 nM at PAK4 (setting [1]).
Turning to `COc1ccc(Cn2c(=O)ccc3cnc(Nc4ccc(N5CCN(C)CC5)cc4)nc32)cc1` [compound 83], the IC50 at PAK1 (setting [1]) and against PAK4 (setting [1]) was > 10000 nM each time.
On to `CN1CCN(c2ccc(Nc3ncc4ccc(=O)n(Cc5ccc(Cl)cc5)c4n3)cc2)CC1` [compound 84], for which the IC50 is 1000 to 10000 nM against PAK1 (setting [1]) and > 10000 nM on PAK4 (setting [1]).
On the same counts, the results for `CN1CCN(c2ccc(Nc3ncc4ccc(=O)n(Cc5ccccc5Cl)c4n3)cc2)CC1` [compound 85] are < 1000 nM and 1000 to 10000 nM.
On the same counts, the results for `COc1ccccc1Cn1c(=O)ccc2cnc(Nc3ccc(N4CCN(C)CC4)cc3)nc21` [compound 88] are < 1000 nM and 1000 to 10000 nM.
On the same counts, the results for `CN1CCN(c2ccc(Nc3ncc4ccc(=O)n(Cc5ccccc5F)c4n3)cc2)CC1` [compound 89] are 1000 to 10000 nM and 1000 to 10000 nM.
Turning to `CN1CCN(c2ccc(Nc3ncc4ccc(=O)n(Cc5ccccn5)c4n3)cc2)CC1` [compound 90], the IC50 at PAK1 (setting [1]) and at PAK4 (setting [1]) was 1000 to 10000 nM throughout.
On to `CN1CCN(c2ccc(Nc3ncc4ccc(=O)n(Cc5ccncc5)c4n3)cc2)CC1` [compound 91], for which the IC50 against PAK1 (setting [1]) was 1000 to 10000 nM; at PAK4 (setting [1]) it was > 10000 nM.
On the same counts, the results for `CN1CCN(c2ccc(Nc3ncc4ccc(=O)n(Cc5cccnc5)c4n3)cc2)CC1` [compound 92] are 1000 to 10000 nM and > 10000 nM.
The molecule `Cc1ccccc1Cn1c(=O)ccc2cnc(Nc3ccc(N4CCN(C)CC4)cc3)nc21` [compound 93] yielded an IC50 at PAK4 (setting [1]) of 1000 to 10000 nM.
As to `CN1CCN(c2ccc(Nc3ncc4ccc(=O)n(Cc5ccccc5C#N)c4n3)cc2)CC1` [compound 94], the IC50 against PAK1 (setting [1]) is < 1000 nM; on PAK4 (setting [1]) it was 1000 to 10000 nM.
On the same counts, the results for `CN1CCN(c2ccc(Nc3ncc4ccc(=O)n(Cc5ccccc5OC(F)(F)F)c4n3)cc2)CC1` [compound 95] are < 1000 nM and 1000 to 10000 nM.
On the same counts, the results for `CN1CCN(c2ccc(Nc3ncc4ccc(=O)n(Cc5ccccc5C(F)(F)F)c4n3)cc2)CC1` [compound 96] are < 1000 nM and < 1000 nM.
On to `CN1CCN(c2ccc(Nc3ncc4ccc(=O)n(Cc5ccccc5OC(F)F)c4n3)cc2)CC1` [compound 98], for which the IC50 against PAK1 (setting [1]) and on PAK4 (setting [1]) was < 1000 nM in each case.
`Cc1cc(F)ccc1Cn1c(=O)ccc2cnc(Nc3ccc(N4CCN(C)CC4)cc3)nc21` [compound 99]: the IC50 against PAK1 (setting [1]) and at PAK4 (setting [1]) was 1000 to 10000 nM throughout.
On to `Cc1ccc(C)c(Cn2c(=O)ccc3cnc(Nc4ccc(N5CCN(C)CC5)cc4)nc32)c1` [compound 100], for which the IC50 against PAK1 (setting [1]) and on PAK4 (setting [1]) was 1000 to 10000 nM each time.

Broadly, the IC50 is the concentration needed to halve the response being measured.
